Experimental data from patent US10752612B2, “PLK4 inhibitors” (LUDWIG INSTITUTE FOR CANCER RESEARCH LTD, priority 2015, dated 2020).
Like-named read-outs stand apart in the source and are kept apart here.

Assays:
TNK1 = molecular target: T1, TNK1 (Homo sapiens, UniProt Q13470); assay: Radiometric kinase assay, off-target TNK1; assay type: biochemical; settings: off-target from DiscoveRx kinome profiling
T1 construct: Reaction Biology (Malvern, Pa.), contract assay
T1 sequence (Q13470 1-666): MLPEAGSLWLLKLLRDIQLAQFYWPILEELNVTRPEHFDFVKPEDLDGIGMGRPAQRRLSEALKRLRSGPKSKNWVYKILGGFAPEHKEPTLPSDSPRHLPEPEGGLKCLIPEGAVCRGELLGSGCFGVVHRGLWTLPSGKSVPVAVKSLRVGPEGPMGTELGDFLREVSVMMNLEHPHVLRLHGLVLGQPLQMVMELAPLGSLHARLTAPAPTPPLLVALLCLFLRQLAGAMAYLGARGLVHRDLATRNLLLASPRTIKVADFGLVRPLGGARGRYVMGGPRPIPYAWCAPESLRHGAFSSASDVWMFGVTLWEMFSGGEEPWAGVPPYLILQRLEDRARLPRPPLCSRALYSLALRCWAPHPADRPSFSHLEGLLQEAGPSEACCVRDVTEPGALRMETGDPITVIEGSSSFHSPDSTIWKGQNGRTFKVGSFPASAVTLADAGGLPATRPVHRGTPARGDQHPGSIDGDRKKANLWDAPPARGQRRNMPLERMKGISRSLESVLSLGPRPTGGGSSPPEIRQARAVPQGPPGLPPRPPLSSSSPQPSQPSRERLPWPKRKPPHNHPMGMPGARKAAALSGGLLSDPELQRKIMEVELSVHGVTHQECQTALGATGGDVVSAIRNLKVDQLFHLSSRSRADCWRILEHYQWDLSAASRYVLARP
Protocol: (§1) Aurora B and other radiometric kinase assays were performed by Reaction Biology (Malvern, Pa.). Kinome profiling of centrinone and centrinone-B was performed by DiscoveRx (San Diego, Calif.).

Aurora B = molecular target: T2, Aurora B (Homo sapiens, UniProt Q96GD4); assay: Aurora B radiometric kinase assay (Reaction Biology); assay type: biochemical
T2 construct: Reaction Biology (Malvern, Pa.), contract assay
T2 sequence (Q96GD4 whole entry): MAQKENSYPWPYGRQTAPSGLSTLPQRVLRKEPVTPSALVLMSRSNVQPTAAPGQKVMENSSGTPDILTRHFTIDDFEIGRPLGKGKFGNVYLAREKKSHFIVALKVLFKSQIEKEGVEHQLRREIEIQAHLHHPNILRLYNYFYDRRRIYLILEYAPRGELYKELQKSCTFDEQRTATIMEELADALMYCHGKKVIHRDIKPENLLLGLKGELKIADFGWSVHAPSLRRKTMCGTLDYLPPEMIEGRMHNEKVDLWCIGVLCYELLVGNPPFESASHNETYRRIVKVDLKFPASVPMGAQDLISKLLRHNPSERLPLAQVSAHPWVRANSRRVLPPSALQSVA
Protocol: Aurora B and other radiometric kinase assays were performed by Reaction Biology (Malvern, Pa.).

HeLa cells = assay: Quantification of centrosome numbers from fixed samples, HeLa; assay type: cell-based, human; settings: for foci of centriolar and pericentriolar material markers: centrinone treatment
Protocol: Quantification of centrosome numbers from fixed samples. Cells were seeded onto poly-D-lysine-coated coverslips (Neuvitro) in 12-well plates at least 8 hours before fixation. At the required timepoints for each experiment, cells were washed once with PBS and fixed in 100% methanol (−20° C., 5 minutes). Fixed cells were washed with PBS, blocked with PBS+4% BSA+0.1% Triton X-100, and stained with primary antibodies against γ-tubulin and Cep192, which localize to the pericentriolar material and proximal to the outer centriole wall, respectively (47, 48). Alexa488-labeled anti-mouse secondary antibody (against anti-γ-tubulin) and Alexa647-labeled anti-rabbit secondary antibody (against anti-Cep192) were both used at 1.5 jag/mL. Samples were mounted onto slides with Prolong Gold antifade reagent (Life Technologies). Images of fixed interphase cells were acquired on a Nikon Eclipse E800 with a 60×1.4 NA PlanApo objective and ORCA-ER camera (Hamamatsu) using Metamorph software (Molecular Devices). Quantification of foci was performed manually. A focus was defined as a bona-fide centrosome if it was positive for both γ-tubulin and Cep192 (true for >95% of foci).

JAK2 = molecular target: T3, JAK2 (Homo sapiens, UniProt O60674); assay: Radiometric kinase assay, off-target JAK2; assay type: biochemical; settings: off-target from DiscoveRx kinome profiling
T3 construct: Reaction Biology (Malvern, Pa.), contract assay
T3 sequence (O60674 whole entry): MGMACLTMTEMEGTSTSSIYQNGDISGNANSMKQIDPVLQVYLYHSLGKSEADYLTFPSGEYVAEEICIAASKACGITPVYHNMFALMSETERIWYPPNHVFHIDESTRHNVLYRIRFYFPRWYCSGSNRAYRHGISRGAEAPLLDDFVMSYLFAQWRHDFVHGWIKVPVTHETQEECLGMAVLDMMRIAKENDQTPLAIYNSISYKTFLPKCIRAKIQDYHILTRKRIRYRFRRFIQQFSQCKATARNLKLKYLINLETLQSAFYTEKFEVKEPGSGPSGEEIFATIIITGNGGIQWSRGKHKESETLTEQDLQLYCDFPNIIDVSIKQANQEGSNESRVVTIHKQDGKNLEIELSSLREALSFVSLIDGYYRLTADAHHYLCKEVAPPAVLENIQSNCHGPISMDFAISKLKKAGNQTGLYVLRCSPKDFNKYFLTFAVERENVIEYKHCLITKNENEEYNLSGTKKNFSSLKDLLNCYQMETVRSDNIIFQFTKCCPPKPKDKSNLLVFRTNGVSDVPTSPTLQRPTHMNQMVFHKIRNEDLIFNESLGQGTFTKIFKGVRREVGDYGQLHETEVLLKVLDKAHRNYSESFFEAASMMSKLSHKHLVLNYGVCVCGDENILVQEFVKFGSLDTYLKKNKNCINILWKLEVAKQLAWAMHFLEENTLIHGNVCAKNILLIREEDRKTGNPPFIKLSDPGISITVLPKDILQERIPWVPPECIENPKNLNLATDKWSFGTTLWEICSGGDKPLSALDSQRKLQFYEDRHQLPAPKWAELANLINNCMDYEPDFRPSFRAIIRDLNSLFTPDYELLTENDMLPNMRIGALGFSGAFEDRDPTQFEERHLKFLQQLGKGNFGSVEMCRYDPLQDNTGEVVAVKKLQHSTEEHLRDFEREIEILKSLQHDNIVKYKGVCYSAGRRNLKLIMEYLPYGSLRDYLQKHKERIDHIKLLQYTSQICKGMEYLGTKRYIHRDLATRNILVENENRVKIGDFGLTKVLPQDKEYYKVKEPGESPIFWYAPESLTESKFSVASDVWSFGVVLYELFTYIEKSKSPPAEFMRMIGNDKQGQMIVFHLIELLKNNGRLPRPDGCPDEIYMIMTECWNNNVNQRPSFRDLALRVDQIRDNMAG
Protocol: as §1

[1] = tested on: Xenopus multiciliated cells; assay: Multiciliation assay in Xenopus embryos; assay type: in vivo
Protocol: Multiciliation assay in Xenopus embryos. Xenopus embryos were obtained by in vitro fertilization using standard protocols (49) approved by the Northwestern University Institutional Animal Care and Use Committee. Fertilized Xenopus embryos were injected with mRNA encoding the centriole marker Centrin4-GFP (333 pg/embryo) and a Dexamethasone-inducible Multicilin (hGR 3′MCI; 160 pg/embryo) (50, 51). […] Embryos were treated for 13 hours at room temperature, fixed in 4% paraformaldehyde and treated with the actin stain phalloidin. Confocal image stacks were collected using a Nikon AIR microscope and centriole numbers were manually quantified in Nikon Elements software. For each condition, centriole numbers were quantified from approximately 100 cells from at least 3 embryos.

panel of 19 cell lines = assay: Proliferation after centrosome depletion, panel of cell lines; assay type: cell-based; settings: panel of 19 cell lines (Table 6)
Protocol: (§2) Proliferation assays. For each condition, cells were seeded in triplicate into 6-well plates at 50,000 cells/well. Compounds were added at the indicated concentrations. At 24-hour intervals, 3 wells were harvested per condition. Cell counting was performed using a TC10 automated cell counter (Bio-Rad). Results are from 3 independent experiments.

RET = molecular target: T4, RET (Homo sapiens, UniProt P07949); assay: Radiometric kinase assay, off-target RET; assay type: biochemical; settings: off-target from DiscoveRx kinome profiling
T4 construct: Reaction Biology (Malvern, Pa.), contract assay
T4 sequence (P07949 29-1114): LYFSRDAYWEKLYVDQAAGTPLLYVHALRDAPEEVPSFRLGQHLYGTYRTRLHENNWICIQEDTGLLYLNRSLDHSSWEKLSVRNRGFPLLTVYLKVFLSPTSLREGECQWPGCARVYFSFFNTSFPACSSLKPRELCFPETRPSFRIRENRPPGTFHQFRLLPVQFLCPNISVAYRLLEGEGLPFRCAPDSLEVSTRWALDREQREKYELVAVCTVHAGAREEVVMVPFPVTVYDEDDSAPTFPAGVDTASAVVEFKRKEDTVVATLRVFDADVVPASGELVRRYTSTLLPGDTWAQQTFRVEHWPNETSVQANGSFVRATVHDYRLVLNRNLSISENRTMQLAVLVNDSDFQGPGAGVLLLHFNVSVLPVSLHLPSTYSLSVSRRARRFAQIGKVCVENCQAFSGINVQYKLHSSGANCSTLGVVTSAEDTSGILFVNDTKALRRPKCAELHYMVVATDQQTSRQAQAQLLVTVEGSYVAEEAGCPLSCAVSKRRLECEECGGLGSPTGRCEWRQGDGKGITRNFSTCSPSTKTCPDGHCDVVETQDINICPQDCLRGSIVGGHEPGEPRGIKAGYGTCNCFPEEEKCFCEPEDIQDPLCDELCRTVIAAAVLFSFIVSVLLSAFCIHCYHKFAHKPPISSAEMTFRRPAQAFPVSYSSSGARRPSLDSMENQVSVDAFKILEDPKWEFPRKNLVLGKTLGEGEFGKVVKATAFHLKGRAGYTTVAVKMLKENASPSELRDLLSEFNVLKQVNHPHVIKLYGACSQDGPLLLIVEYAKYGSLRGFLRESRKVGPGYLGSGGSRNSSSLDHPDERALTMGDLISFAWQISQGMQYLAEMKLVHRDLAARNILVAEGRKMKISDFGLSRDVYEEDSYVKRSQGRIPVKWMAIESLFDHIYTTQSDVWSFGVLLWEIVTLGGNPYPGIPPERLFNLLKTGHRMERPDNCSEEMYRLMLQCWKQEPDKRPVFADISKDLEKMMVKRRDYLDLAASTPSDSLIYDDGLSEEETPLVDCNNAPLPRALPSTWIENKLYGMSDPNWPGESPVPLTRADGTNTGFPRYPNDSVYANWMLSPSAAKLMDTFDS
Protocol: as §1

[2] = tested on: full-length mouse Plk4-YFP; assay: Plk4 stabilization assay, Plk4-YFP DLD-1 cells; assay type: cell-based, human; settings: 25 nM or 100 nM, 24 hours
Protocol: Plk4 stabilization assay. Expression was induced in Plk4-YFP DLD-1 cells using 1 μg/ml doxycycline. At the same time, cells were treated with the indicated concentrations of compounds. Cells were incubated for 24 hours before harvesting for Western blotting (see below).
Western blotting. […] Cell extracts were stored at −80° C. until use.

NIH/3T3 cells = assay: Proliferation assay, NIH/3T3; assay type: cell-based, mouse
Protocol: as §2

Plk4 = Plk4 intensity at centrosomes, HeLa; assay type: cell-based, human; settings: 125 nM, 8 hours
Source text: FIGS. 13A-13D. Centriole number set points arise from a dynamic equilibrium between centriole overduplication and removal of cells with extra centrioles. […] Yellow arrowheads mark centrin foci. Each frame was acquired at NEBD when the centrosomes are optimally distributed for counting. Times in the bottom left of each panel are in minutes relative to NEBD in the mother cell. Scale bar, 10 μm. (FIG. 13B) Histogram of mitotic outcomes for HeLa cells with <2, 2 or >2 centrosomes. The fates of daughter cells arising from 2-centrosome bipolar mitosis, multi-centrosome bipolar mitosis, and multi-centrosome multipolar mitosis are shown below. Data are mean+/−SD (N=2). […] Intervals are based on the time of NEBD in the mother cells. The diagonal line represents the 2:1 ratio expected under normal conditions; points above or below this line correspond to over- or under-duplication, respectively. […] Boxed regions are magnified 2.3× in panels below. Scale bar, […]. The Plk4 intensity at centrosomes was quantified and normalized to the intensity in untreated cells. Data are mean+/−SD (N=3).

## COc1c(Nc2cc(C)[nH]n2)nc(Sc2ccc(S(=O)(=O)Cc3cccc([N+](=O)[O-])c3F)cc2F)nc1N1CCOCC1 [Centrinone, 2-((2-fluoro-4-((2-fluoro-3-nitrobenzyl)sulfonyl)phenyl)thio)-5-methoxy-N-(5-methyl-1H-pyrazol-3-yl)-6-morpholinopyrimidin-4-amine]
TNK1
  Ki: 0.00138 µM
Aurora B
  Ki: 0.437 µM
HeLa cells; HeLa (also BT549, N1E-115-1)
  centrosome number directly after washout from long-term treated cells: initial wave of centrosome overduplication
HeLa cells; HeLa, 10 days following washout
  centrosome numbers after washout: all cells exhibited normal centrosome numbers
HeLa cells; HeLa
  foci of centriolar and pericentriolar material markers: loss of all markers from cells
HeLa cells; HeLa, listed as centrinone
  foci of centriolar and pericentriolar material markers: most cells lacked centrioles/centrosomes
JAK2
  Ki: > 0.15 µM
[1]
  centriole number in multiciliated cells: dramatically reduced centriole numbers
[1]; listed as centrinone
  centriole number in multiciliated cells: reduced centriole number
Panel of 19 cell lines
  proliferation after treatment: continued to proliferate
RET
  Ki: 0.0139 µM
[2]
  Plk4-YFP stabilization: more substantial stabilization
NIH/3T3 cells; NIH/3T3, first two days after addition
  proliferation versus controls: identical to controls
NIH/3T3 cells; centrosome-less NIH/3T3, theoretical curves versus measurements
  cell death per generation explaining reduced proliferation rate: 15%
Plk4
  Plk4 level at the centrosome: double
